# In article PMC7522982, “PKIS deep dive yields a chemical starting point for dark kinases and a cell active BRSK2 inhibitor” (Scientific Reports, 2020):
# Key:
# [1] = biological target: T1, BRSK2 (Homo sapiens, UniProt Q8IWQ3); test: Eurofins kinase enzymatic radiometric assay; type: biochemical; set-up: purchased Eurofins; conditions: Km of ATP, 9-point curve in duplicate
# T1 sequence (Q8IWQ3 1-736): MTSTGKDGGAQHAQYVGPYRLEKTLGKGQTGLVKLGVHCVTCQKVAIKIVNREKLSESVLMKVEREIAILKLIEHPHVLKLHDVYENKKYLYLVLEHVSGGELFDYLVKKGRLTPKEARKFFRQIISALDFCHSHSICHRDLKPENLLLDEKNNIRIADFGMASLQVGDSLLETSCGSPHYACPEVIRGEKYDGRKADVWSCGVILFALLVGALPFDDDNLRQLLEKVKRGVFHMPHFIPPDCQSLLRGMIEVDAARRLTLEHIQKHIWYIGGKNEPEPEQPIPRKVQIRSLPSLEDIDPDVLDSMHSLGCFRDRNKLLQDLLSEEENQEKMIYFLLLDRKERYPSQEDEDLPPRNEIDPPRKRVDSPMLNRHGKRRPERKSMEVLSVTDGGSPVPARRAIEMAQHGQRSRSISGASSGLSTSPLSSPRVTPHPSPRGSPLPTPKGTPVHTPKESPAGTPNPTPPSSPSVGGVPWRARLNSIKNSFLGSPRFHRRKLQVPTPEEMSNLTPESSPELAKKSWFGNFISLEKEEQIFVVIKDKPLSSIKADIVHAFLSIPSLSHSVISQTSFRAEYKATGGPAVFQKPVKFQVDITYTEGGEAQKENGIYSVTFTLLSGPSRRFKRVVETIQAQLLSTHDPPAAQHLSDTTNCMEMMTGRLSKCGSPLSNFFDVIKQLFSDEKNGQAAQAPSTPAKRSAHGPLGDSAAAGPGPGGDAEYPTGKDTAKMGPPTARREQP
# Excerpt: (§1) Due to our interest in the activity of GW296115 on several understudied IDG kinases, we collected full dose–response curves for all wild type kinases inhibited ≥ 75% in the DiscoverX panel that were offered by Eurofins. Having data in orthogonal formats is a powerful way to confirm inhibitory activity and adds rigor to our results. Eurofins has kinase enzymatic radiometric assays for 35 of the kinases on this list (Table S2) and a kinase enzymatic LANCE assay for one additional kinase (MAP2K5/MEK5).
# (§2) Eurofins kinase enzymatic radiometric assays were carried out at the Km of ATP in dose–response (9-pt curve in duplicate) for each kinase for which it was offered.
# [2] = biological target: PHKG1 (Homo sapiens, UniProt Q16816); test: Eurofins kinase enzymatic radiometric assay; type: biochemical; set-up: purchased Eurofins; conditions: Km of ATP, 9-point curve in duplicate
# Excerpt: as §1, §2
# [3] = biological target: PIM3 (Homo sapiens, UniProt Q86V86); test: Eurofins kinase enzymatic radiometric assay; type: biochemical; set-up: purchased Eurofins; conditions: Km of ATP, 9-point curve in duplicate
# Excerpt: as §1, §2
# [4] = biological target: CHEK2 (Homo sapiens, UniProt O96017); test: Eurofins kinase enzymatic radiometric assay; type: biochemical; set-up: purchased Eurofins; conditions: Km of ATP, 9-point curve in duplicate
# Excerpt: as §1, §2
# [5] = biological target: AXL (Homo sapiens, UniProt P30530); test: Eurofins kinase enzymatic radiometric assay; type: biochemical; set-up: purchased Eurofins; conditions: Km of ATP, 9-point curve in duplicate
# Excerpt: as §1, §2
# [6] = biological target: T2, STK17B/DRAK2 (Homo sapiens, UniProt O94768); test: Eurofins kinase enzymatic radiometric assay; type: biochemical; set-up: purchased Eurofins; conditions: Km of ATP, 9-point curve in duplicate
# T2 sequence (O94768 1-372): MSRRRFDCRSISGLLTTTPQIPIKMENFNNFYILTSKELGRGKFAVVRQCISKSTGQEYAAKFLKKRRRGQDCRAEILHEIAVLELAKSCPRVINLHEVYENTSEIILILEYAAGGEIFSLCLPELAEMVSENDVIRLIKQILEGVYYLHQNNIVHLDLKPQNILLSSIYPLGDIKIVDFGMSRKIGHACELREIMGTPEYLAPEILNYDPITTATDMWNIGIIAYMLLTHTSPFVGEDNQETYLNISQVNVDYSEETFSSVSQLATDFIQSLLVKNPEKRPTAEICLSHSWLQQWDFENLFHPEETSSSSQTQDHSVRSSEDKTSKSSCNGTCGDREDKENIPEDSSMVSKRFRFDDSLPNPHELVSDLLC
# Excerpt: as §1, §2
# [7] = biological target: DAPK1 (Homo sapiens, UniProt P53355); test: Eurofins kinase enzymatic radiometric assay; type: biochemical; set-up: purchased Eurofins; conditions: Km of ATP, 9-point curve in duplicate
# Excerpt: as §1, §2
# [8] = biological target: MYLK/MLCK/smMLCK (Homo sapiens, UniProt Q15746); test: Eurofins kinase enzymatic radiometric assay; type: biochemical; set-up: purchased Eurofins; conditions: Km of ATP, 9-point curve in duplicate
# Excerpt: as §1, §2
# [9] = biological target: DCLK3/DCAMKL3 (Homo sapiens, UniProt Q9C098); test: Eurofins kinase enzymatic radiometric assay; type: biochemical; set-up: purchased Eurofins; conditions: Km of ATP, 9-point curve in duplicate
# Excerpt: as §1, §2
# [10] = biological target: STK33 (Homo sapiens, UniProt Q9BYT3); test: Eurofins kinase enzymatic radiometric assay; type: biochemical; set-up: purchased Eurofins; conditions: Km of ATP, 9-point curve in duplicate
# Excerpt: as §1, §2
# [11] = biological target: PDGFRB (Homo sapiens, UniProt P09619); test: Eurofins kinase enzymatic radiometric assay; type: biochemical; set-up: purchased Eurofins; conditions: Km of ATP, 9-point curve in duplicate
# Excerpt: as §1, §2
# [12] = biological target: AURKC (Homo sapiens, UniProt Q9UQB9); test: Eurofins kinase enzymatic radiometric assay; type: biochemical; set-up: purchased Eurofins; conditions: Km of ATP, 9-point curve in duplicate
# Excerpt: as §1, §2
# [13] = biological target: DMPK (Homo sapiens, UniProt Q09013); test: Eurofins kinase enzymatic radiometric assay; type: biochemical; set-up: purchased Eurofins; conditions: Km of ATP, 9-point curve in duplicate
# Excerpt: as §1, §2
# [14] = biological target: FLT3 (Homo sapiens, UniProt P36888); test: Eurofins kinase enzymatic radiometric assay; type: biochemical; set-up: purchased Eurofins; conditions: Km of ATP, 9-point curve in duplicate
# Excerpt: as §1, §2
# [15] = biological target: T2, STK17B/DRAK2; set-up: purchased Eurofins; method as in earlier work; conditions: cited from earlier work
# [16] = tested on: PRKAA2; set-up: method as in earlier work; conditions: cited from earlier work
# Chain of CHEK2 (O96017 whole entry): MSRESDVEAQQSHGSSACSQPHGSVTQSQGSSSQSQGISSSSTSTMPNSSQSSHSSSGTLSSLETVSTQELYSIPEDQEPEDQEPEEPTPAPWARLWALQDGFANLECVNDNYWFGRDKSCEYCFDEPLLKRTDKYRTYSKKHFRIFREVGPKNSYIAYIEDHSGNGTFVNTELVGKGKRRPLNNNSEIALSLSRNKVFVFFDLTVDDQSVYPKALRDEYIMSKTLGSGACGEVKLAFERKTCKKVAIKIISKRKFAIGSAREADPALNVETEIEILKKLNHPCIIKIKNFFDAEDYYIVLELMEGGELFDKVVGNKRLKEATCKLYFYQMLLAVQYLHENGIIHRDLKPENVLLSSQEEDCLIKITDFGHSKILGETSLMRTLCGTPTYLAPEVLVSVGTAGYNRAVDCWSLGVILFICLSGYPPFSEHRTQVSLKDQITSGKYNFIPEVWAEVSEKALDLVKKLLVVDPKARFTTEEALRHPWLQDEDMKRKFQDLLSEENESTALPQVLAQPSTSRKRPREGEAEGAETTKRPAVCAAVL
# Chain of AXL (P30530 26-894): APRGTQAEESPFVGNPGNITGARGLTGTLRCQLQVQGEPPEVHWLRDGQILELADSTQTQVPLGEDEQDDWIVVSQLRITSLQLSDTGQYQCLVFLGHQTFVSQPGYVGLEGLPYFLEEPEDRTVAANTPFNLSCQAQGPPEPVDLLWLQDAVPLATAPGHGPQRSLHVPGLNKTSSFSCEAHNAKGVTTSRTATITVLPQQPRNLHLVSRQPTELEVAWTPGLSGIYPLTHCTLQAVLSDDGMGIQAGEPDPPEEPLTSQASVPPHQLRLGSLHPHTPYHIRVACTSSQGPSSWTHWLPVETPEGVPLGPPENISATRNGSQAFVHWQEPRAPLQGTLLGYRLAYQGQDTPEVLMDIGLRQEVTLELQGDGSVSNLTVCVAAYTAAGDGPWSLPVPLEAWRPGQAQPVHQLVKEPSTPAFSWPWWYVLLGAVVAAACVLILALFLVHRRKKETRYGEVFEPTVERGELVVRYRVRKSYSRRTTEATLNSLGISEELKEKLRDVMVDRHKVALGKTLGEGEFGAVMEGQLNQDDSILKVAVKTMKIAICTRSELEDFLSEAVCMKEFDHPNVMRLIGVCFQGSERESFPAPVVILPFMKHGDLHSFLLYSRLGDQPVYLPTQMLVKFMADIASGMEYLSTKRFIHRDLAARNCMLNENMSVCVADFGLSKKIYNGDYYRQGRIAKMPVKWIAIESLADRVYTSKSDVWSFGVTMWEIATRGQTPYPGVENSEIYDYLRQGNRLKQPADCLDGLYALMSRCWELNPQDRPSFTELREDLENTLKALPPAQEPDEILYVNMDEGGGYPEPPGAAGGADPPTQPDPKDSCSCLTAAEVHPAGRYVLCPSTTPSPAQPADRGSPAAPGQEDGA
# Chain of AURKC (Q9UQB9 whole entry): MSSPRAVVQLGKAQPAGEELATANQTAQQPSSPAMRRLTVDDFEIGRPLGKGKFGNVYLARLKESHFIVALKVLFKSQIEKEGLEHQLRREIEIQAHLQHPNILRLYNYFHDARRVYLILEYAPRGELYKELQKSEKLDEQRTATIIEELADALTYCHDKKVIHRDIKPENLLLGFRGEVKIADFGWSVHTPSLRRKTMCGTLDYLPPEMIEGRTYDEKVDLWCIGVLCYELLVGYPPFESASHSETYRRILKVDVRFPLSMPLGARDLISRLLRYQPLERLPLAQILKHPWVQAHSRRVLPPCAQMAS
# Chain of DMPK (Q09013 whole entry): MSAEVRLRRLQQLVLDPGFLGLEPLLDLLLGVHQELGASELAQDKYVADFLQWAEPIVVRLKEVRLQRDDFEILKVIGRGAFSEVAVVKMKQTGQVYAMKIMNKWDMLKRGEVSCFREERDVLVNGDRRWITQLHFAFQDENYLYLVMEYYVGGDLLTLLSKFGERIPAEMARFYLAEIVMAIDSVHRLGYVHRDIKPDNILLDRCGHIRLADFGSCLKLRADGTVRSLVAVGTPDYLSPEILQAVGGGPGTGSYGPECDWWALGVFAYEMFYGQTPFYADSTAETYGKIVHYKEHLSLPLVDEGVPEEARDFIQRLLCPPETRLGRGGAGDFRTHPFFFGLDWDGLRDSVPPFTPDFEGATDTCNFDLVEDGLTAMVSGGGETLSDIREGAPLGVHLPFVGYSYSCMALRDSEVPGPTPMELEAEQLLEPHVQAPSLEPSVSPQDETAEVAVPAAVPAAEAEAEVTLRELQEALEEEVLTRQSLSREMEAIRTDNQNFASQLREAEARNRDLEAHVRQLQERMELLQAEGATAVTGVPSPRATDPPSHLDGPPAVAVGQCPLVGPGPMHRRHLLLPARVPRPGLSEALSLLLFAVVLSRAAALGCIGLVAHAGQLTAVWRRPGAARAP
# Chain of PHKG1 (Q16816 whole entry): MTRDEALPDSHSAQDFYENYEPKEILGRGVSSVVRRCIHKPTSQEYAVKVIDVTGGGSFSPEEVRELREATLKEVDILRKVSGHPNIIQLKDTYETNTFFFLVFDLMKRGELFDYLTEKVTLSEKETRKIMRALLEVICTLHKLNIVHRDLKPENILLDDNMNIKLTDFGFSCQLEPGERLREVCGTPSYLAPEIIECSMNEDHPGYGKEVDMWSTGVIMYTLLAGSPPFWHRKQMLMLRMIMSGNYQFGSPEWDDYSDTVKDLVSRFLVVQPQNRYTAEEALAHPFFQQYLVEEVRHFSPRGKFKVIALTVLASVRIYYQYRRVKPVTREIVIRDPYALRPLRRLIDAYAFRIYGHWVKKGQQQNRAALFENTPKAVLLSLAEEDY
# Chain of MYLK/MLCK/smMLCK (Q15746 whole entry): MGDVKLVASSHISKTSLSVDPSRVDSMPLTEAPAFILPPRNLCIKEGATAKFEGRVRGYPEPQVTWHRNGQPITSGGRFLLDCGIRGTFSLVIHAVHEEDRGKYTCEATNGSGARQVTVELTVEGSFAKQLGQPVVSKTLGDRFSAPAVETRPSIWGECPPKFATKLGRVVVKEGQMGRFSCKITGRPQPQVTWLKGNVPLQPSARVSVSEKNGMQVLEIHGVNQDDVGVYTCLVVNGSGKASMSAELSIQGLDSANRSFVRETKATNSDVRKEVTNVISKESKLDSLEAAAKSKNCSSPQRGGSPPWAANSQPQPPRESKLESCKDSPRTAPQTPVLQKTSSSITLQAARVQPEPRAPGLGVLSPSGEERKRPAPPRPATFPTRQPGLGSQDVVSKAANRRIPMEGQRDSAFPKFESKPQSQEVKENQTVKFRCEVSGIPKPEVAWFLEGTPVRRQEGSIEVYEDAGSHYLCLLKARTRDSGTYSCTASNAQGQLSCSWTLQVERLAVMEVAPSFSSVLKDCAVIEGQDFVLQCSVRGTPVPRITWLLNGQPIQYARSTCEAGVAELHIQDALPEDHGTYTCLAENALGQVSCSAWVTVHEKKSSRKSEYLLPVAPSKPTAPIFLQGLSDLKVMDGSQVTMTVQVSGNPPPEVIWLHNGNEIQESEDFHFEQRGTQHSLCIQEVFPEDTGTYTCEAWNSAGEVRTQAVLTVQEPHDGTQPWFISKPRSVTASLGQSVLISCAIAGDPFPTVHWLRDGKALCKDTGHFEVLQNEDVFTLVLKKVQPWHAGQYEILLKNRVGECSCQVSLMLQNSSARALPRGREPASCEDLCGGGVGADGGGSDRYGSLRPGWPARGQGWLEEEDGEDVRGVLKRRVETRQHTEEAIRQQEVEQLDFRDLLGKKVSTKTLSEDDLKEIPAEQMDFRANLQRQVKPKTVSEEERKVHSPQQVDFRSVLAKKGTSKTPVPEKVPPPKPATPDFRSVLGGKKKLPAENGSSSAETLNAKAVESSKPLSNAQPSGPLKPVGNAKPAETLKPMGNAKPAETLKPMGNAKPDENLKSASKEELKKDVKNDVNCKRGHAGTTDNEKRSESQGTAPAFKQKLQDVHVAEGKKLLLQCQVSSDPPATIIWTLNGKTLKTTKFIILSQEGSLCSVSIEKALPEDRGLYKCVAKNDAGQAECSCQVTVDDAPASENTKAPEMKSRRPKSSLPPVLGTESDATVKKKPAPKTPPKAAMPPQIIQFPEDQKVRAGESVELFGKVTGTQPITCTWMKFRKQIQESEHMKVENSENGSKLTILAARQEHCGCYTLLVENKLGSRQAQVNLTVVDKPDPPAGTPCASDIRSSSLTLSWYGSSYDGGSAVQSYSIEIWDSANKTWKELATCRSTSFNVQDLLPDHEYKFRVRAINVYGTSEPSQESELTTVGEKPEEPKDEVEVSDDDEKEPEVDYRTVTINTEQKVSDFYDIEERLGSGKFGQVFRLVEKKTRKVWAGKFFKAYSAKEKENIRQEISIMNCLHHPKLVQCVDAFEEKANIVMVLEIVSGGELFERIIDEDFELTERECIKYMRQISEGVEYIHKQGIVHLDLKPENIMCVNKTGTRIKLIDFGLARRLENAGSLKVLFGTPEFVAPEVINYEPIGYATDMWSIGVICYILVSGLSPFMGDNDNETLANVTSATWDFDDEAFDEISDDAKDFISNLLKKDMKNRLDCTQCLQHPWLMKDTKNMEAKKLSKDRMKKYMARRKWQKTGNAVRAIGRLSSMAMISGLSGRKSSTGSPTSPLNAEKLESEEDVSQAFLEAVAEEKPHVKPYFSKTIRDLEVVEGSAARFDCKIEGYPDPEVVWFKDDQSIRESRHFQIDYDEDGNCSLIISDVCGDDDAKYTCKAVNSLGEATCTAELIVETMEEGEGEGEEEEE
smiles,measurement,setting,value
COc1ccc2[nH]c3c4[nH]c5ccc(OC)cc5c4c4c(c3c2c1)C(=O)NC4=O [GW296115],IC50,[1],8.4 nM
same,IC50,[2],20 nM
same,IC50,[3],89 nM
same,IC50,[4],2.6 nM
same,IC50,[5],160 nM
same,IC50,[6],5.5 nM
same,IC50,[7],> 10000 nM
same,IC50,[8],49 nM
same,IC50,[9],89 nM
same,IC50,[10],110 nM
same,IC50,[11],> 10000 nM
same,IC50,[12],4100 nM
same,IC50,[13],> 10000 nM
same,IC50,[14],37 nM
same,TSA ΔTm at 10 μM (°C),[15],18.3 °C
same,TSA ΔTm at 10 μM (°C),[16],10.6 °C
